From patent US20180153995A1, “USE OF ANTIMICROBIAL POLYMERS FOR RE-SENSITIZATION OF MICROORGANISMS UPON EMERGENCE OF RESISTANCE TO ANTI-MICROBIAL AGENTS” (Technion Research & Development Foundation Limited, priority 2008, published 2018)
Like-named read-outs stand apart in the source and are kept apart here. Numbered stars: 1 amine (or outer) side, 2 acyl side, 3 side chain; on linkers, the order of the positions; unused ones are H or OH. Square brackets hold non-standard residues; d marks the D form. Peptide text beside a SMILES is read from it. * marks the point of attachment. NH(CH2)9CO = O=C(CCCCCCCCCN[*:1])[*:2]; Lauroyl = CCCCCCCCCCCC(=O)*

Tests used:
[1] = test system: MRSA 15903; experiment: microbe, parasite or virus in culture; format: cell-based, Staphylococcus aureus; settings: for MIC, ¼ + MIC OAK: with C12K(KNC10K)3NH2 (SEQ ID NO: 10) at ¼ of its MIC; for MIC, ½ + MIC OAK: with C12K(KNC10K)3NH2 (SEQ ID NO: 10) at ½ of its MIC; for MIC, ⅓ + MIC OAK: with C12K(KNC10K)3NH2 (SEQ ID NO: 10) at ⅓ of its MIC; for MIC: Staphylococcus aureus, MRSA, 24 h, read-out: MIC, Alone
Procedure: The fractionary inhibitory (FIC) concentration index for combinations of two antimicrobial agents was calculated as follows: FIC index=FICA+FICB=A/MICA+B/MICB where A and B are the MIC values of agent A and agent B in the combination, MICA and MICB are the MICs of agent A and agent B alone, and FICA and FICB are the FICs of agent A and agent B.
The FIC indexes were interpreted as follows: less than 0.5 indicates a clear re-sensitizing effect; from 0.5 to 4 indicates a marginal or null re-sensitizing effect; and over 4 indicates antagonism.
Experimental data for FIG. 4 were obtained as follows.

[2] = test system: E. coli K-12 efflux knockout mutant; format: cell-based, Escherichia coli; settings: E. coli K-12 strain with decreased levels of efflux pumps
Procedure: (§1) MICs were determined by microdilution susceptibility testing in 96-well plates (by Nunc) using inocula of 10^5 bacteria per ml. Cell populations were evaluated by optical density measurements at 620 nm and were calibrated against a set of standards. Hundred (100) μl of a bacterial suspension were added to 100 μl of culture medium (control) or to 100 μl of culture medium containing various polymer concentrations in 2-fold serial dilutions. Inhibition of proliferation was determined by optical density measurements at 620 nm after an incubation period of 24 hours at 37° C.

[3] = test system: E. coli CI14213; format: cell-based, Escherichia coli
Procedure: as §1

[4] = test system: Escherichia coli strains; format: cell-based; settings: isogenic pair of E. coli K-12 strains
Procedure: as §1

[5] = test system: E. coli K-12 resistant wild type; format: cell-based, Escherichia coli; settings: E. coli K-12 multi-resistant wild type
[6] = test system: various strains of S. aureus, E. coli P. aeruginosa, P. mirabilis and S. maltophila; format: cell-based; settings: strain not stated
Procedure: Antibacterial activity was determined using various strains of S. aureus, E. coli P. aeruginosa, P. mirabilis and S. maltophila, cultured in LB medium (10 grams/liter trypton, 5 grams/liter yeast extract, 5 grams/liter NaCl, pH 7.4). Bacterial strains include susceptible strains of Staphylococcus aureus, Pseudomonas aeruginosa, Bacillus cereus and Escherichia coli (ATCC, American Type Culture Collection), as well as antibiotic-resistant strains such as oxacillin-resistant Staphylococcus aureus (ORSA) and methicillin-resistant Staphylococcus aureus (MRSA).
as §1

[7] = test system: E. coli 16327; experiment: microbe, parasite or virus in culture; settings: 16327
Procedure: as §1
100 μl of a bacterial suspension were added to 100 μl of culture medium (control) or to 100 μl of culture medium containing various antibiotic and C14(9-ene)KKNC12KNH2 (SEQ ID NO: 5) concentrations in 2-fold serial dilutions. Inhibition of proliferation was determined by optical density measurements at 620 nm after an incubation period of 24 hours at 37° C.

`CN[C@H](CC(C)C)C(=O)N[C@H]1C(=O)N[C@@H](CC(N)=O)C(=O)N[C@H]2C(=O)N[C@H]3C(=O)N[C@H](C(=O)N[C@H](C(=O)O)c4cc(O)cc(O)c4-c4cc3ccc4O)[C@H](O)c3ccc(c(Cl)c3)Oc3cc2cc(c3O[C@@H]2O[C@H](CO)[C@@H](O)[C@H](O)[C@H]2O[C@H]2C[C@](C)(N)[C@H](O)[C@H](C)O2)Oc2ccc(cc2Cl)[C@H]1O` [vancomycin] was tested, and the “MIC, ¼ + MIC OAK” value ([1]; MRSA 15903) was 1 µg/mL, the “MIC, ½ + MIC OAK” value ([1]; MRSA 15903) was 1 µg/mL and the “MIC, ⅓ + MIC OAK” value ([1]; MRSA 15903) was 1 µg/mL. It also gave an MIC [1] of 1 µg/mL.
For `CCCCCCCCCCCC(=O)N[C@@H](CCCCN)C(=O)NCCCCCCCC(=O)N[C@@H](CCCCN)C(=O)NCCCCCCCC(=O)N[C@@H](CCCCN)C(=O)NCCCCCCCC(=O)N[C@@H](CCCCN)C(=O)NCCCCCCCC(=O)N[C@@H](CCCCN)C(=O)NCCCCCCCC(=O)N[C@@H](CCCCN)C(N)=O` [C12K(NC8K)5NH2], the “effect of polymer on antibiotic MICs” value [2] was “not altered significantly”, the MIC of polymer ([3]; CI14213) was 6.2 µM and the “re-sensitizing effect of polymer on oxacillin” value ([3]; E. coli CI14213, polymer well below MIC (up to ⅛ MIC), 24 hours) was “endowed potency to oxacillin”. The MIC of polymer [4] was 3.125 µg/mL and the “effect of polymer on antibiotics potency” value [5] was “enhanced antibiotics potency”.
`CCCCCCC=CCCCCCCCC(=O)N[C@@H](CCCCN)C(=O)N[C@@H](CCCCN)C(=O)NCCCCCCCCCCCC(=O)N[C@@H](CCCCN)C(N)=O` [C16(9-ene)KKNC12KNH2] was tested, and the “MIC of polymer per se” value [6] was 6.2 µM.
`CCCCC=CCCCCCCCC(=O)N[C@@H](CCCCN)C(=O)N[C@@H](CCCCN)C(=O)NCCCCCCCCCCCC(=O)N[C@@H](CCCCN)C(N)=O` [C14(9-ene)KKNC12KNH2] was tested, and the “MIC of polymer per se” value [6] was 6.2 µM.
In the case of `Cc1nnc(SCC2=C(C(=O)O)N3C(=O)[C@@H](NC(=O)Cn4cnnn4)[C@H]3SC2)s1` [cefazolin], the “MIC, ¼ + MIC OAK” value ([1]; MRSA 15903) is reported as 16 µg/mL, the “MIC, ½ + MIC OAK” value ([1]; MRSA 15903) is reported as 2 to 4 µg/mL and the “MIC, ⅓ + MIC OAK” value ([1]; MRSA 15903) is reported as 8 to 16 µg/mL. It also gave an MIC ([1]; MRSA 15903, antibiotic alone (Table 22)) of 16 µg/mL.
For `CCCCCCCCCCCC(=O)N[C@@H](CCCCN)C(=O)N[C@@H](CCCCN)C(=O)NCCCCCCCCCC(=O)N[C@@H](CCCCN)C(=O)N[C@@H](CCCCN)C(=O)NCCCCCCCCCC(=O)N[C@@H](CCCCN)C(=O)N[C@@H](CCCCN)C(=O)NCCCCCCCCCC(=O)N[C@@H](CCCCN)C(N)=O` [C12K(KNC10K)3NH2] (Lauroyl-KK[NH(CH2)9CO]KK[NH(CH2)9CO]KK[NH(CH2)9CO]K-NH2), the MIC of polymer [7] was 3.1 µM and the MIC of polymer [1]; 15903 was 6.25 µM.
